Measurements published in ChEMBL document CHEMBL1641424, “Synthesis and biological activity of novel 5'-arylamino-nucleosides by microwave-assisted one-pot tandem Staudinger/aza-Wittig/reduction” (Bioorg Med Chem Lett, 2011).
Active and inactive are the calls of the source. No cut-off for these calls is given here.

Tests used:
[1] = target: Human immunodeficiency virus type 1 reverse transcriptase (Human immunodeficiency virus 1, UniProt Q72547); assay: Inhibition of HIV1 reverse transcriptase activity after 1 hr by ELISA
HeLa = assay: Cytotoxicity against human HeLa cells up to 200 uM after 48 hrs by MTT assay

| Structure (SMILES) | IC50 [1] | Activity (HeLa) |
| --- | --- | --- |
| O=c1ccn([C@@H]2O[C@H](CNCc3ccc(Cl)cc3)[C@@H](O)[C@H]2O)c(=O)[nH]1 | 2.82 µM | inactive |
| O=c1[nH]c(=O)n([C@@H]2O[C@H](CNCc3ccccc3Cl)[C@@H](O)[C@H]2O)cc1F | 3.53 µM | inactive |
| O=c1[nH]c(=O)n([C@@H]2O[C@H](CNCc3c(F)cccc3Cl)[C@@H](O)[C@H]2O)cc1F | 3.9 µM | inactive |
| O=c1[nH]c(=O)n([C@@H]2O[C@H](CNCc3c(Cl)cccc3Cl)[C@@H](O)[C@H]2O)cc1F | 4.84 µM | inactive |
| O=c1ccn([C@@H]2O[C@H](CNCc3c(Cl)cccc3Cl)[C@@H](O)[C@H]2O)c(=O)[nH]1 | 4.72 µM | inactive |
| O=c1ccn([C@@H]2O[C@H](CNCc3ccccc3Cl)[C@@H](O)[C@H]2O)c(=O)[nH]1 | 6.13 µM | inactive |
| O=c1[nH]c(=O)n([C@@H]2O[C@H](CNCc3ccc(Cl)cc3)[C@@H](O)[C@H]2O)cc1F | 3.75 µM | inactive |
| O=c1ccn([C@@H]2O[C@H](CNCc3c(F)cccc3Cl)[C@@H](O)[C@H]2O)c(=O)[nH]1 | 4.99 µM | inactive |
